Experimental data from PMC6479981, “Design, Synthesis, and In Vitro Biological Activities of a Bio-Oxidizable Prodrug to Deliver Both ChEs and DYRK1A Inhibitors for AD Therapy” (Molecules, 2019).
Like-named read-outs stand apart in the source and are kept apart here.

Columns and labels:
hAChE [1] = target: T1, hAChE (Homo sapiens, UniProt P22303); assay: biochemical; type: biochemical
T1 construct: purchased Aldrich
Procedure: (§1) Inhibitory capacity of compounds on hAChE and hBuChE biological activity was evaluated through the use of Ellman’s spectrometric method. Acetylthiocholine iodide (ATCI), […] (BTCI) and 5,5-dithiobis-(2-nitrobenzoic) acid (DTNB) were purchased from Sigma Aldrich. Lyophilized hAChE and hBuChE were purchased from Aldrich, and were diluted in phosphate buffer (pH 8) so as to give an enzyme solution with 0.25 units/mL enzyme activity. In the procedure, 100 μL of 0.3 mM DTNB dissolved in phosphate buffer pH 7.4 were added into the 96 well plate, followed by 50 μL of the tested compound solution and 50 μL of enzyme solution. After 5 min of preincubation, the reaction was then initiated by the injection of 50 μL of 10 mM ATCI or BTCI solution. […] All assays were performed in duplicate, and IC50 values were determined graphically from 8 points inhibition curves using the Prism® software.

hBuChE [2] = target: T2, hBuChE (Homo sapiens, UniProt P06276); assay: biochemical; type: biochemical
T2 construct: purchased Aldrich
T2 sequence (P06276 29-602): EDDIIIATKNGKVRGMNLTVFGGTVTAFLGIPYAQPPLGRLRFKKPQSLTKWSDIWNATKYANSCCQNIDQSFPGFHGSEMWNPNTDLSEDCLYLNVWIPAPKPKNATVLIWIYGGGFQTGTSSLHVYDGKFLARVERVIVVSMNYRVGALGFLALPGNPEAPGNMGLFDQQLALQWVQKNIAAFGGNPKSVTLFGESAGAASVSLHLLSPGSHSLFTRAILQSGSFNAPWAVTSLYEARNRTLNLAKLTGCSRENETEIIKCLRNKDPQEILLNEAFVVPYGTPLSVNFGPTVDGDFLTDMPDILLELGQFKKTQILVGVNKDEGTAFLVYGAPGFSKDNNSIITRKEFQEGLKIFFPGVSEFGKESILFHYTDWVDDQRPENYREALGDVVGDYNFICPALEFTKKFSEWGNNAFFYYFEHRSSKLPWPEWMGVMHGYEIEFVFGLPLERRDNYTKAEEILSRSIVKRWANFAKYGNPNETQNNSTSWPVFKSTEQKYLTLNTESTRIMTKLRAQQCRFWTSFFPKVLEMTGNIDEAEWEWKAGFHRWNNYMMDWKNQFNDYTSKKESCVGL
Procedure: as §1

human recombinant DYRK1A = target: T3, human recombinant DYRK1A (Homo sapiens, UniProt Q13627); assay: biochemical; conditions: for inhibition at 1 µM: read-out: DYRK1a Inhibition (%)
T3 construct: Eurofins Pharma Discovery (ran the assay)
Procedure: Evaluation of the effects of compounds on the activity of the human recombinant DYRK1A was made using the LANCE® detection method, and was quantified by measuring the phosphorylation of Ulight-[…]-amide (MBP). The assays were conducted by Eurofins Pharma Discovery in Bois l’Evêque, France. […] Next, 100 nM of Ulight-[…]-amide (MBP) and 10 µM ATP were added to initiate the reaction, and the mixture was incubated for 30 min at 25 °C. A blank without enzyme was also performed for control basal measurements. The experiment was stopped by addition of 13 mM EDTA, followed by the addition of the anti-phospho-MBP antibody labeled with europium chelate after 5 min. […] Outputs are expressed as a percentage of inhibition of the control DYRK1A activity.

[3] = PAMPA-BBB permeability assay; type: in vitro ADME; conditions: pH 7.4, 4 h, room temperature
Procedure: Assays were performed at the Centre d’Etudes et de Recherche sur le Médicament de Normandie (CERMN) in Caen, France. These assays were realized according to the methodology developed by PION, by means of the Pampa-BBB Explorer™ system. This system allows the measurement of the crossing velocity of a compound from one compartment to another through an artificial membrane at pH = 7.4. The experiment was replicated 6 times in 4 h, with quantification by UV-spectra reading. The result is given in Pe [cm·s^−1], and an interpretation by comparison with standard compounds is proposed. The studied compounds were diluted at 20 mM in DMSO, then diluted at […] in Prisma HT Buffer pH 7.4 (pION). 200 µL of this solution was placed in the wells of the donor plate. 5 μL of BBB-1 Lipid was placed in the filters of the acceptor plate. 200 µL of Brain Sink Buffer was added in the wells of the acceptor plate. The sandwich was then assembled and incubated for 4 h at room temperature, without stirring. The sandwich was then separated and the UV-vis spectra of the donor and acceptor compartments were determined with the plate reader (Tecan infinite M200, Männedorf, Switzerland). Pe were calculated with the PAMPA Explorer software v.3.7 (pION Inc, Billerica, MA, USA). Standard compounds used were corticosterone and theophylline.

[4] = target: T4, peripheral binding site of eeAChE (Electrophorus electricus, UniProt O42275); assay: Propidium iodide displacement (competition) assay
T4 construct: purchased Aldrich
T4 sequence (O42275 24-633): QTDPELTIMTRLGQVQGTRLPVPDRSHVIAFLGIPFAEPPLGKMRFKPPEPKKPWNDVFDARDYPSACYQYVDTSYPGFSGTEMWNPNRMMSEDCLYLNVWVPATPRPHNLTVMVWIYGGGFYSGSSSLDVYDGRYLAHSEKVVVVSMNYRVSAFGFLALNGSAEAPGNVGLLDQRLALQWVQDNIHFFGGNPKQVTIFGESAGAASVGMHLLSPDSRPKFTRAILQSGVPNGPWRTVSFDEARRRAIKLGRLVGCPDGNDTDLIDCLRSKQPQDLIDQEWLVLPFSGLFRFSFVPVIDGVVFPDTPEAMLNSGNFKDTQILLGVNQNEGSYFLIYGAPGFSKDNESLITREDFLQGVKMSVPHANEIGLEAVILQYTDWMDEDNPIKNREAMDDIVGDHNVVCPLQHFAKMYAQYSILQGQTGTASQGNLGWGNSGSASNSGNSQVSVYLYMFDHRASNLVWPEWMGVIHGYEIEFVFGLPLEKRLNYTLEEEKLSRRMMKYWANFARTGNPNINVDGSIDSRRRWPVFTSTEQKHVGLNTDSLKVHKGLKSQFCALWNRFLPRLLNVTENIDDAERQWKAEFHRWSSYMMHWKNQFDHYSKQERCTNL
Procedure: The assays were performed at the Centre d’Etudes et de Recherche sur le Médicament de Normandie (CERMN) in Caen, France. […] Fluorescence intensity was monitored using a microplate reader. […] Each assay was performed in triplicate.

hBuChE [5] = target: T2, hBuChE; assay: Time-dependent (stopped time) kinetic study of hBuChE inhibition; type: biochemical
Procedure: (§2) To support the assumption of the pseudo-irreversible inhibition mechanism of both ChEs by compound 14, kinetic studies were also performed using stopped time assays at different concentrations of ligand 14. […] Using a nonlinear regression fitting analysis, the pseudo-first-order inhibition rate constant (kobs) for each concentration of 14 was obtained and the equilibrium constant (Kc) and the carbamoylation rate constant (k3) was determined by the reported method.
(§3) For the time-dependent experiments, assays were performed using a 96 well microplate reader to a final volume of 250 μL, a final enzyme concentration of 0.05 U·mL^−1 and an ATCI (or BTCI) and DNTB concentrations of 0.3 and 0.5 mM respectively in phosphate buffer (pH 8). At the starting time (t0), the inhibitor at various concentration (150 μL) was added to an equivalent volume of hAChE (or hBuChE). The mixture was then incubated at 37 °C and, at different time points, 50 μL aliquots were transferred to wells containing a solution of ATCI (or BTCI) and DTNB in phosphate buffer (200 μL) and the activity was determined by measuring the changes in absorbance at 412 nm every minute for 10 min. Blank experiments were also performed without inhibitor. The first order inhibition constant kobs was determined for all inhibitor concentrations using a nonlinear regression. Data were fitted with the equation, A = A0 exp(−kobs·t) + A∞ with A, A0, A∞ being ratios of the inhibited enzyme activity to the control activity at time t, 0, and ∞. Double reciprocal plots of kobs versus the inhibitor concentration were made to determine the equilibrium constant Kc and the carbamoylation rate constant k3, following the described method.

hAChE [6] = target: T1, hAChE; assay: Time-dependent (stopped time) kinetic study of hAChE inhibition; type: biochemical
Procedure: as §2, §3

[7] = mean value of duplicate, 5 min preincubation, read-out: IC50 hAChE
[8] = mean value of duplicate, 5 min preincubation, read-out: IC50 hBuChE
[9] = at 1 μM compound, 10 μM ATP concentration, mean value of duplicate

T1 sequence (P22303 32-614): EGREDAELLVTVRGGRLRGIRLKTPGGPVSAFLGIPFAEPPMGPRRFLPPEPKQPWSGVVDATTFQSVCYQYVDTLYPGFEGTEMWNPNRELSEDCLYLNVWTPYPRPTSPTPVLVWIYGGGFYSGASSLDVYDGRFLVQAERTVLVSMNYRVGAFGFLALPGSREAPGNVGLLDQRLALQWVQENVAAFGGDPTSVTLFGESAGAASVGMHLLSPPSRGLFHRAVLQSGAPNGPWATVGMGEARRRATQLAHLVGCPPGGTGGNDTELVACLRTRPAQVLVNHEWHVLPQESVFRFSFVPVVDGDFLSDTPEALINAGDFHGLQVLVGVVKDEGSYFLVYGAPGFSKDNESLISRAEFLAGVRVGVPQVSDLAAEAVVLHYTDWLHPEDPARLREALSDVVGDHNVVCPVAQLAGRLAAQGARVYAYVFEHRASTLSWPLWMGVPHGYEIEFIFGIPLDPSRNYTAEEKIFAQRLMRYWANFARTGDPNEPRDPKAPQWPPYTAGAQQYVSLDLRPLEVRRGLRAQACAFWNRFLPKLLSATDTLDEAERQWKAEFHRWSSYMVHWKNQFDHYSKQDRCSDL

SMILES | IC50 (hAChE [1]) [nM] | IC50 (hBuChE [2]) [nM] | inhibition at 1 µM (human recombinant DYRK1A) [%] | IC50 (hAChE [1]; [7]) [nM] | IC50 (hBuChE [2]; [8]) [nM] | DYRK1a Inhibition (%) (human recombinant DYRK1A; [9]) | also measured
CN(C)C(=O)Oc1cccc2c1cc(C(=O)NCCO)c[n+]2C [2a, reference compound] | 37.1 ± 0.1 | 1440 ± 286 | 0 | – | – | – | –
CCN1/C(=C/C(C)=O)Sc2ccc(O)cc21 [Indy, reference compound] | – | – | – | > 10000 | > 10000 | – | –
CCN1/C(=C/C(C)=O)Sc2ccc(OC(=O)OCCOCCNC(=O)C3=CN(C)c4cccc(OC(=O)N(C)C)c4C3)cc21 [compound 4, (Z)-3-((2-(2-((((3-Ethyl-2-(2-oxopropylidene)-2,3-dihydrobenzo[d]thiazol-5-yl)oxy)carbonyl)oxy)ethoxy)ethyl)carbamoyl)-1-methyl-1,4-dihydroquinolin-5-yl dimethylcarbamate] | 1020 ± 72.1 | 961 ± 22 | 8 | – | – | – | Papp at 4 h ([3]; PAMPA, read-out: Pe (PAMPA BBB, passive diffusion)): 2.41 ×10⁻⁶ cm/s; inhibition at 10 µM ([4]; read-out: Propidium Iodide Displacement Inhibition (%)): 4 ± 2%
CCN1/C(=C/C(C)=O)Sc2ccc(OC(=O)OCCOCCNC(=O)c3cc4c(OC(=O)N(C)C)cccc4[n+](C)c3)cc21.COS(=O)(=O)[O-] [compound 14, (Z)-5-((Dimethylcarbamoyl)oxy)-3-((2-(2-((((3-ethyl-2-(2-oxopropylidene)-2,3-dihydrobenzo[d]thiazol-5-yl)oxy)carbonyl)oxy)ethoxy)ethyl)carbamoyl)-1-methylquinolin-1-ium methyl sulfate] | – | – | – | 81.4 ± 0.4 | 482 ± 21 | 5 | Pe (PAMPA BBB, passive diffusion) [3]: 0 ×10⁻⁶ cm/s; Propidium Iodide Displacement Inhibition (%) ([4]; compound 10^−5 M, eeAChE, propidium iodide 1 μM, mean value of triplicate): 26 ± 1%; carbamoylation rate constant k3 (hBuChE [5]; hBChE): 0.574 min⁻¹; Kd (hBuChE [5]; hBChE, 37 °C, double reciprocal plot of kobs vs inhibitor concentration, read-out: equilibrium constant Kc): 659 nM; second order rate constant Ki (k3/Kc), carbamylation efficacy (hBuChE [5]; hBuChE): 14500 M⁻¹ s⁻¹; carbamoylation rate constant k3 (hAChE [6]): 0.408 min⁻¹; second order rate constant Ki (k3/Kc), carbamylation efficacy (hAChE [6]): 29700 M⁻¹ s⁻¹; Kd (hAChE [6]; 37 °C, double reciprocal plot of kobs vs inhibitor concentration, read-out: equilibrium constant Kc): 230 nM
CCN1/C(=C/C(C)=O)Sc2ccc(OC(=O)OCCOCCNC(=O)c3cc4ccccc4[n+](C)c3)cc21.COS(=O)(=O)[O-] [compound 15, (Z)-3-((2-(2-((((3-Ethyl-2-(2-oxopropylidene)-2,3-dihydrobenzo[d]thiazol-5-yl)oxy)carbonyl)oxy)ethoxy)ethyl)carbamoyl)-1-methylquinolin-1-ium methyl sulfate] | – | – | – | > 10000 | 6400 ± 714 | 6 | inhibitory activity against hAChE (in words) (hAChE [1]): did not show any significant inhibitory activity; inhibitory activity against hBuChE (in words) (hBuChE [2]): did not show any significant inhibitory activity
CCN1/C(=C/C(C)=O)Sc2ccc(OC(=O)OCCOCCNC(=O)C3=CN(C)c4ccccc4C3)cc21 [compound 16, (Z)-3-Ethyl-2-(2-oxopropylidene)-2,3-dihydrobenzo[d]thiazol-5-yl (2-(2-(1-methyl-1,4-dihydroquinoline-3-carboxamido)ethoxy)ethyl) carbonate] | – | – | – | > 10000 | > 10000 | – | inhibition at 1 µM (human recombinant DYRK1A; [9]): 7%
